Ends that are not written are not given here.
Experiments:
[1] = system: M. smegmatis MC2155; test: Agar well diffusion assay with purified peptide; type: cell-based, Mycobacterium smegmatis; conditions: for 100 mg L^−1 Agar Diffusion Zone Area: purified peptide 100 mg L^−1, 50 µl per well, 0.75% agar seeded 0.5% with 40 h culture of M. smegmatis MC2155, 40 h; for 100 mg L^−1 Agar Diffusion Relative to WT (%): purified peptide 100 mg L^−1 vs M. smegmatis MC2155, zone area relative to nisin A
[2] = system: M. smegmatis MC2155; test: Deferred antagonism assay of producer strains; type: cell-based, Mycobacterium smegmatis; conditions: for Deferred Antagonism Zone Area: L. lactis NZ9800 producer spotted (approx. 3 µl) on GM17 agar, incubated 40 h, overlaid with 0.75% agar seeded 0.5% with M. smegmatis MC2155, area of zone minus area of spot; for Deferred Antagonism Relative to WT (%): producer strain vs M. smegmatis MC2155, zone area relative to wild type nisin A producer
[3] = system: L. lactis HP; test: Deferred antagonism assay of producer strains; type: cell-based, Lactococcus lactis; conditions: for Deferred Antagonism Zone Area: L. lactis NZ9800 producer spotted (approx. 3 µl) on GM17 agar, 16 h 30°C, overlaid with 0.75% agar seeded 0.5% with L. lactis HP, area of zone minus area of spot; for Deferred Antagonism Relative to WT (%): producer strain vs L. lactis HP, zone area relative to wild type nisin A producer
[4] = system: S. aureus RF122; test: Agar well diffusion assay with purified peptide; type: cell-based, Staphylococcus aureus; conditions: for 100 mg L^−1 Agar Diffusion Zone Area: purified peptide 100 mg L^−1, 50 µl per well, 1.5% agar seeded 0.5% with S. aureus RF122, 16 h; for 100 mg L^−1 Agar Diffusion Relative to WT (%): purified peptide 100 mg L^−1 vs S. aureus RF122, zone area relative to nisin A
[5] = system: S. agalactiae ATCC 13813; test: Minimum inhibitory concentration (MIC) assay in broth; type: cell-based, Streptococcus agalactiae; conditions: for MIC Specific Activity as % of WT: broth, BSA-pretreated 96-well plates, triplicate, 2-fold dilutions from 7.5 µM, 10^5 cfu/ml, 16 h
Procedure: (§1) Minimum inhibitory concentration assays were carried out in triplicate using 96-well plates (Sarstedt) pretreated with bovine serum albumin (BSA) as previously described. Wild type nisin and nisin derivatives were adjusted to a 500 nM (when using L. lactis as a target) or 7.5 µM (all other indicators) starting concentration and 2-fold serial dilutions of each peptide were carried out. An overnight of the target strain was subcultured and incubated to an OD600 nm of 0.5 before being diluted to give a final inoculum of 10^5cfu/ml in 200μl. The plates were incubated at an appropriate temperature and inspected after 16 hours. The MIC was determined as the lowest concentration at which no growth was visible.

[6] = system: S. aureus RF122; test: Deferred antagonism assay of producer strains; type: cell-based, Staphylococcus aureus; conditions: for Deferred Antagonism Zone Area: L. lactis NZ9800 producer spotted (approx. 3 µl) on GM17 agar, 16 h 30°C, overlaid with 0.75% agar seeded 0.5% with S. aureus RF122, area of zone minus area of spot; for Deferred Antagonism Relative to WT (%): producer strain vs S. aureus RF122, zone area relative to wild type nisin A producer
[7] = system: S. agalactiae ATCC 13813; test: Agar well diffusion assay with purified peptide; type: cell-based, Streptococcus agalactiae; conditions: for 100 mg L^−1 Agar Diffusion Zone Area: purified peptide 100 mg L^−1, 50 µl per well, 1.5% agar seeded 0.5% with S. agalactiae ATCC 13813, 16 h; for 100 mg L^−1 Agar Diffusion Relative to WT (%): purified peptide 100 mg L^−1 vs S. agalactiae ATCC 13813, zone area relative to nisin A
[8] = system: S. agalactiae ATCC 13813; test: Deferred antagonism assay of producer strains; type: cell-based, Streptococcus agalactiae; conditions: for Deferred Antagonism Zone Area: L. lactis NZ9800 producer spotted (approx. 3 µl) on GM17 agar, 16 h 30°C, overlaid with 0.75% agar seeded 0.5% with S. agalactiae ATCC 13813, area of zone minus area of spot; for Deferred Antagonism Relative to WT (%): producer strain vs S. agalactiae ATCC 13813, zone area relative to wild type nisin A producer
[9] = system: L. lactis HP; test: Minimum inhibitory concentration (MIC) assay in broth; type: cell-based, Lactococcus lactis; conditions: BSA-pretreated 96-well plates, triplicate, 2-fold dilutions from 500 nM, 10^5 cfu/ml, 16 h
Procedure: as §1

[10] = system: L. lactis HP; test: Agar well diffusion assay with purified peptide; type: cell-based, Lactococcus lactis; conditions: for 100 mg L^−1 Agar Diffusion Zone Area: purified peptide 100 mg L^−1, 50 µl per well, 1.5% agar seeded 0.5% with L. lactis HP, 16 h; for 100 mg L^−1 Agar Diffusion Relative to WT (%): purified peptide 100 mg L^−1 vs L. lactis HP, zone area relative to nisin A
[11] = system: S. aureus RF122; test: Minimum inhibitory concentration (MIC) assay in broth; type: cell-based, Staphylococcus aureus; conditions: BSA-pretreated 96-well plates, triplicate, 2-fold dilutions from 7.5 µM, 10^5 cfu/ml, 16 h
Procedure: as §1

Row | Substance | 100 mg L^−1 Agar Diffusion Zone Area [1] [mm^2] | 100 mg L^−1 Agar Diffusion Relative to WT (%) [1] [%] | Deferred Antagonism Zone Area [2] [mm^2] | Deferred Antagonism Relative to WT (%) [2] [%] | Deferred Antagonism Zone Area [3] [mm^2] | Deferred Antagonism Relative to WT (%) [3] [%] | 100 mg L^−1 Agar Diffusion Zone Area [4] [mm^2] | 100 mg L^−1 Agar Diffusion Relative to WT (%) [4] [%] | Improvement in broth based specific activity relative to the natural peptide ([5]; broth based specific activity (MIC) assay) | MIC Specific Activity as % of WT [5] [%] | Deferred Antagonism Zone Area [6] [mm^2] | Deferred Antagonism Relative to WT (%) [6] [%] | 100 mg L^−1 Agar Diffusion Zone Area [7] [mm^2] | 100 mg L^−1 Agar Diffusion Relative to WT (%) [7] [%] | Deferred Antagonism Zone Area [8] [mm^2] | Deferred Antagonism Relative to WT (%) [8] [%] | MIC Specific Activity as % of WT [9] [%] | 100 mg L^−1 Agar Diffusion Zone Area [10] [mm^2] | 100 mg L^−1 Agar Diffusion Relative to WT (%) [10] [%] | MIC Specific Activity as % of WT [11] [%]
1 | AAA: nisin A derivative with hinge region consisting of AAA (rational design) (ITSISLCTPGCKTGALMGCAAATATCHCSIHVSK; not fully specified; also: nisin-type thioether rings and dehydrated residues, not located; UniProt P13068 24-57, looked up, variant N20A M21A K22A) | 149.24±4.776 | 220.15 | 277.65±60.42 | 541.09 | 492.83±40.27 | 164.51 | 155.77±3.30 | 156.81 | two-fold improvement | 200 | 292.24±11.46 | 211.29 | 305.58±2.39 | 124.06 | 401.32±15.62 | 177.14 | 100 | 416.00±17.99 | 155.41 | 25
2 | SLS: nisin A derivative with hinge region SLS (ITSISLCTPGCKTGALMGCSLSTATCHCSIHVSK; also: nisin-type thioether rings and dehydrated residues, not located; UniProt P13068 24-57, looked up, variant N20S M21L K22S) | 119.56±8.59 | 176.36 | 230.31±20.31 | 448.84 | 370.75±28.28 | 123.76 | 98.82±10.14 | 99.47 | – | 25 | 153.93±7.15 | 111.29 | 226.05±4.10 | 91.78 | 209.45±17.11 | 92.45 | 25 | 321.93±22.43 | 120.26 | <6
3 | Nisin A (ITSISLCTPGCKTGALMGCNMKTATCHCSIHVSK; not fully specified; Lantibiotic nisin-A; UniProt P13068 24-57, looked up) [WT, 34 amino acid lantibiotic with three dehydrated amino acids and five thioether rings; hinge N20-M21-K22, reference compound] | 67.79±4.308 | – | 51.31±10.08 | – | 299.58±7.04 | – | 99.34±12.33 | – | – | – | 138.31±3.36 | – | 246.31±2.74 | – | 226.55±2.96 | – | – | 267.69±9.21 | – | –
4 | SAA: nisin A derivative with hinge region consisting of SAA (rational design) (ITSISLCTPGCKTGALMGCSAATATCHCSIHVSK; also: nisin-type thioether rings and dehydrated residues, not located; UniProt P13068 24-57, looked up, variant N20S M21A K22A) | 101.19±11.510 | 149.27 | 303.85±59.93 | 592.15 | 483.14±33.89 | 161.28 | 130.60±4.46 | 131.47 | – | 100 | 236.28±13.53 | 170.83 | 301.62±8.18 | 122.46 | 407.98±18.452 | 180.08 | 50 | 344.76±18.50 | – | 25
5 | NAI: nisin A derivative with hinge region NAI (ITSISLCTPGCKTGALMGCNAITATCHCSIHVSK; also: nisin-type thioether rings and dehydrated residues, not located; UniProt P13068 24-57, looked up, variant M21A K22I) | 78.50±8.16 | 115.8 | 270.04±58.30 | 526.26 | 439.52±47.88 | 146.71 | 129.75±11.36 | 130.61 | – | 200 | – | 118.02 | 291.52±8.46 | 118.36 | 318.81±7.915 | 140.72 | 100 | 371.32±19.60 | – | 25

Source: PMC3823697, “Intensive Mutagenesis of the Nisin Hinge Leads to the Rational Design of Enhanced Derivatives” (PLoS ONE, 2013)
